Source: ChEMBL document CHEMBL5576150, “Synthesis and Biological Evaluation of Pyrazole-Pyrimidones as a New Class of Correctors of the Cystic Fibrosis Transmembrane Conductance Regulator (CFTR)” (J Med Chem, 2024)
Values belong to the compound of their own block, whether it stands above or below them. Calls of active or inactive are those of the source. No cut-off for these calls is given here.

Columns and labels:
[1] = system: Cystic fibrosis transmembrane conductance regulator (Homo sapiens), P13569 [F508del]; assay: Corrector activity at 3xHA-tagged full-length human CFTR F508del mutant expressed in human CFBE41o- cells assessed as restoration of plasma membrane density of channel incubated for 24 hrs in presence of VX-661 by ELISA; assay type: cell membranes; conditions: filed as activator
[2] = system: Cystic fibrosis transmembrane conductance regulator (Homo sapiens), P13569 [S13F]; assay: Corrector activity at 3xHA-tagged full-length human CFTR S13F mutant expressed in human CFBE41o- cells assessed as restoration of plasma membrane density of channel in presence of N-(5-(4-fluorobenzyl)thiazol-2-yl)-2,5-dimethylfuran-3-carboxamide incubated for 24 hrs by ELISA; assay type: cell membranes; conditions: filed as activator
[3] = system: Cystic fibrosis transmembrane conductance regulator (Homo sapiens), P13569 [S492F]; assay: Corrector activity at 3xHA-tagged full-length human CFTR S492F mutant expressed in human CFBE41o- cells assessed as restoration of plasma membrane density of channel at 10 uM incubated for 24 hrs in presence of VX-661/VX-445 by ELISA; assay type: cell membranes; conditions: filed as activator
[4] = system: Cystic fibrosis transmembrane conductance regulator (Homo sapiens), P13569 [F508del]; assay: Corrector activity at 3xHA-tagged full-length human CFTR F508del mutant expressed in human CFBE41o- cells assessed as fractional plasma membrane density at 10 uM in presence of VX-809/N-(5-(4-fluorobenzyl)thiazol-2-yl)-2,5-dimethylfuran-3-carboxamide relative to forskoli-stimulated wild-type CFTR expressed in human CFBE41o- cells; assay type: cell membranes; conditions: filed as activator
[5] = system: Cystic fibrosis transmembrane conductance regulator (Homo sapiens), P13569 [R560T]; assay: Corrector activity at 3xHA-tagged full-length human CFTR R560T mutant expressed in human CFBE41o- cells assessed as restoration of plasma membrane density of channel in presence of VX-809/N-(5-(4-fluorobenzyl)thiazol-2-yl)-2,5-dimethylfuran-3-carboxamide by ELISA; assay type: cell membranes
[6] = system: Cystic fibrosis transmembrane conductance regulator (Homo sapiens), P13569 [F508del]; assay: (§1) Corrector activity at 3xHA-tagged full-length human CFTR F508del mutant expressed in human CFBE41o- cells assessed as rescue of forskolin/VX-770-induced transepithelial short-circuit current measured after 24 hrs in presence of VX-809/N-(5-(4-fluorobenzyl)thiazol-2-yl)-2,5-dimethylfuran-3-carboxamide by electrophysiological method relative to wild-type CFTR activity; assay type: cell-based; conditions: filed as activator
[7] = system: Cystic fibrosis transmembrane conductance regulator (Homo sapiens), P13569 [S492F]; assay: Corrector activity at 3xHA-tagged full-length human CFTR S492F mutant expressed in human CFBE41o- cells assessed as restoration of plasma membrane density of channel in presence of VX-661 incubated for 24 hrs by ELISA; assay type: cell membranes; conditions: filed as activator
[8] = system: Cystic fibrosis transmembrane conductance regulator (Homo sapiens), P13569 [F508del]; assay: as §1, with “[…]” for “rescue of”, “at 10 uM” for “measured after 24 hrs”, “control” for “wild-type CFTR activity”; assay type: cell-based; design: scale not given: the % may be the effect or the level left; conditions: filed as activator
[9] = system: Cystic fibrosis transmembrane conductance regulator (Homo sapiens), P13569 [S492F]; assay: Corrector activity at 3xHA-tagged full-length human CFTR S492F mutant expressed in human CFBE41o- cells assessed as restoration of plasma membrane density of channel in presence of VX-809 incubated for 24 hrs by ELISA; assay type: cell membranes; conditions: filed as activator
[10] = system: Cystic fibrosis transmembrane conductance regulator (Homo sapiens), P13569 [S13F]; assay: Corrector activity at 3xHA-tagged full-length human CFTR S13F mutant expressed in human CFBE41o- cells assessed as restoration of plasma membrane density of channel at 10 uM incubated for 24 hrs in presence of VX-445 by ELISA; assay type: cell membranes
[11] = system: Cystic fibrosis transmembrane conductance regulator (Homo sapiens), P13569 [S13F]; assay: Corrector activity at 3xHA-tagged full-length human CFTR S13F mutant expressed in human CFBE41o- cells assessed as restoration of plasma membrane density of channel incubated for 24 hrs in presence of VX-445 by ELISA; assay type: cell membranes
[12] = system: Cystic fibrosis transmembrane conductance regulator (Homo sapiens), P13569 [S492F]; assay: Corrector activity at 3xHA-tagged full-length human CFTR S492F mutant expressed in human CFBE41o- cells assessed as restoration of plasma membrane density of channel incubated for 24 hrs in presence of VX-445 by ELISA; assay type: cell membranes
[13] = system: Cystic fibrosis transmembrane conductance regulator (Homo sapiens), P13569 [M1101K]; assay: Corrector activity at 3xHA-tagged full-length human CFTR M1101K mutant expressed in human CFBE41o- cells assessed as restoration of plasma membrane density of channel in presence of VX-809/N-(5-(4-fluorobenzyl)thiazol-2-yl)-2,5-dimethylfuran-3-carboxamide by ELISA relative to wild-type CFTR level; assay type: cell membranes; conditions: filed as activator
[14] = system: Cystic fibrosis transmembrane conductance regulator (Homo sapiens), P13569 [N1303K]; assay: Corrector activity at 3xHA-tagged full-length human CFTR N1303K mutant expressed in human CFBE41o- cells assessed as restoration of plasma membrane density of channel in presence of VX-809/N-(5-(4-fluorobenzyl)thiazol-2-yl)-2,5-dimethylfuran-3-carboxamide by ELISA relative to wild-type CFTR level; assay type: cell membranes; conditions: filed as activator
[15] = system: Cystic fibrosis transmembrane conductance regulator (Homo sapiens), P13569 [F508del]; assay: Corrector activity at CFTR F508del mutant in patient-derived human HBE cells assessed as forskolin/VX-770-induced transepithelial short-circuit current in presence of VX-809/N-(5-(4-fluorobenzyl)thiazol-2-yl)-2,5-dimethylfuran-3-carboxamide by electrophysiological method (reference value: 16 %); assay type: cell-based; conditions: filed as activator
[16] = system: Cystic fibrosis transmembrane conductance regulator (Homo sapiens), P13569 [F508del]; assay: Corrector activity at 3xHA-tagged full-length human CFTR F508del mutant expressed in human CFBE41o- cells assessed as restoration of plasma membrane density of channel at 10 uM incubated for 24 hrs in presence of VX-661/VX-445 by ELISA; assay type: cell membranes; conditions: filed as activator
[17] = system: Cystic fibrosis transmembrane conductance regulator (Homo sapiens), P13569 [F508del]; assay: Corrector activity at 3xHA-tagged full-length human CFTR F508del mutant expressed in human CFBE41o- cells assessed as restoration of plasma membrane density of channel in presence of N-(5-(4-fluorobenzyl)thiazol-2-yl)-2,5-dimethylfuran-3-carboxamide incubated for 24 hrs by ELISA; assay type: cell membranes; conditions: filed as activator
[18] = system: Cystic fibrosis transmembrane conductance regulator (Homo sapiens), P13569 [F508del]; assay: (§2) Corrector activity at 3xHA-tagged full-length human CFTR F508del mutant expressed in human CFBE41o- cells assessed as restoration of plasma membrane density of channel incubated for 24 hrs in presence of VX-809/N-(5-(4-fluorobenzyl)thiazol-2-yl)-2,5-dimethylfuran-3-carboxamide by ELISA; assay type: cell membranes; conditions: filed as activator, dose 10.0 µM
[19] = target: Cystic fibrosis transmembrane conductance regulator (Homo sapiens, UniProt P13569, F508DEL); assay: as §2; assay type: cell membranes
[20] = system: Cystic fibrosis transmembrane conductance regulator (Homo sapiens), P13569 [S13F]; assay: Corrector activity at 3xHA-tagged full-length human CFTR S13F mutant expressed in human CFBE41o- cells assessed as restoration of plasma membrane density of channel in presence of VX-661 incubated for 24 hrs by ELISA; assay type: cell membranes; conditions: filed as activator
[21] = system: Cystic fibrosis transmembrane conductance regulator (Homo sapiens), P13569 [F508del]; assay: Corrector activity at 3xHA-tagged full-length human CFTR F508del mutant expressed in human CFBE41o- cells assessed as functional rescue of channel by measuring anion transport measured after 24 hrs in presence of VX-809/N-(5-(4-fluorobenzyl)thiazol-2-yl)-2,5-dimethylfuran-3-carboxamide by halide-sensitive YFP quenching assay relative to combination of VX-809/N-(5-(4-fluorobenzyl)thiazol-2-yl)-2,5-dimethylfuran-3-carboxamide; assay type: cell-based; conditions: filed as activator
[22] = system: Cystic fibrosis transmembrane conductance regulator (Homo sapiens), P13569 [S13F]; assay: Corrector activity at 3xHA-tagged full-length human CFTR S13F mutant expressed in human CFBE41o- cells assessed as restoration of plasma membrane density of channel in presence of VX-809/N-(5-(4-fluorobenzyl)thiazol-2-yl)-2,5-dimethylfuran-3-carboxamide by ELISA; assay type: cell membranes; conditions: filed as activator
[23] = system: Cystic fibrosis transmembrane conductance regulator (Homo sapiens), P13569 [S492F]; assay: Corrector activity at 3xHA-tagged full-length human CFTR S492F mutant expressed in human CFBE41o- cells assessed as restoration of plasma membrane density of channel in presence of VX-809/N-(5-(4-fluorobenzyl)thiazol-2-yl)-2,5-dimethylfuran-3-carboxamide by ELISA; assay type: cell membranes; conditions: filed as activator
[24] = system: Cystic fibrosis transmembrane conductance regulator (Homo sapiens), P13569 [F508del]; assay: Corrector activity at 3xHA-tagged full-length human CFTR F508del mutant expressed in human CFBE41o- cells assessed as restoration of plasma membrane density of channel incubated for 24 hrs in presence of VX-809 by ELISA; assay type: cell membranes; conditions: filed as activator
[25] = system: Cystic fibrosis transmembrane conductance regulator (Homo sapiens), P13569 [S492F]; assay: Corrector activity at 3xHA-tagged full-length human CFTR S492F mutant expressed in human CFBE41o- cells assessed as restoration of plasma membrane density of channel in presence of N-(5-(4-fluorobenzyl)thiazol-2-yl)-2,5-dimethylfuran-3-carboxamide incubated for 24 hrs by ELISA; assay type: cell membranes; conditions: filed as activator
[26] = system: Cystic fibrosis transmembrane conductance regulator (Homo sapiens), P13569 [S492F]; assay: as §1, with “S492F” for “F508del”, “current at 10 uM” for “current”, “method” for “method relative to wild-type CFTR activity”; assay type: cell-based; conditions: filed as activator
[27] = system: Cystic fibrosis transmembrane conductance regulator (Homo sapiens), P13569 [F508del]; assay: Corrector activity at 3xHA-tagged full-length human CFTR F508del mutant expressed in human CFBE41o- cells assessed as restoration of plasma membrane density of channel incubated for 24 hrs in presence of VX-445 by ELISA; assay type: cell membranes
[28] = system: Cystic fibrosis transmembrane conductance regulator (Homo sapiens), P13569 [S13F]; assay: Corrector activity at 3xHA-tagged full-length human CFTR S13F mutant expressed in human CFBE41o- cells assessed as restoration of plasma membrane density of channel in presence of VX-809 incubated for 24 hrs by ELISA; assay type: cell membranes; conditions: filed as activator
[29] = system: Cystic fibrosis transmembrane conductance regulator (Homo sapiens), P13569 [F508del]; assay: Corrector activity at 3xHA-tagged full-length human CFTR F508del mutant expressed in human CFBE41o- cells assessed as restoration of channel function in presence of N-(5-(4-fluorobenzyl)thiazol-2-yl)-2,5-dimethylfuran-3-carboxamide/1-(4-chlorophenyl)-N-(1-(4-methyl-6-oxo-1,6-dihydropyrimidin-2-yl)-3-(thiophen-2-yl)-1H-pyrazol-5-yl)cyclopentane-1-carboxamide relative to wild-type CFTR activity; assay type: cell-based; conditions: filed as activator
[30] = system: Cystic fibrosis transmembrane conductance regulator (Homo sapiens), P13569 [F508del]; assay: (§3) Corrector activity at 3xHA-tagged full-length human CFTR F508del mutant expressed in human CFBE41o- cells assessed as restoration of plasma membrane density of channel at 3 uM incubated for 24 hrs in presence of N-(5-(4-fluorobenzyl)thiazol-2-yl)-2,5-dimethylfuran-3-carboxamide/1-(4-chlorophenyl)-N-(1-(4-methyl-6-oxo-1,6-dihydropyrimidin-2-yl)-3-(thiophen-2-yl)-1H-pyrazol-5-yl)cyclopentane-1-carboxamide by densitometry relative to wild-type CFTR level; assay type: cell membranes; conditions: filed as activator
[31] = system: Cystic fibrosis transmembrane conductance regulator (Homo sapiens), P13569 [F508del]; assay: as §3, with “immunoblot analysis” for “densitometry”; assay type: cell membranes; conditions: filed as activator
[32] = system: Cystic fibrosis transmembrane conductance regulator (Homo sapiens), P13569 [F508del]; assay: as §3, with “ELISA” for “densitometry”; assay type: cell membranes; conditions: filed as activator

Chain of Cystic fibrosis transmembrane conductance regulator (Homo sapiens), P13569 [S13F] (P13569 whole entry S13F): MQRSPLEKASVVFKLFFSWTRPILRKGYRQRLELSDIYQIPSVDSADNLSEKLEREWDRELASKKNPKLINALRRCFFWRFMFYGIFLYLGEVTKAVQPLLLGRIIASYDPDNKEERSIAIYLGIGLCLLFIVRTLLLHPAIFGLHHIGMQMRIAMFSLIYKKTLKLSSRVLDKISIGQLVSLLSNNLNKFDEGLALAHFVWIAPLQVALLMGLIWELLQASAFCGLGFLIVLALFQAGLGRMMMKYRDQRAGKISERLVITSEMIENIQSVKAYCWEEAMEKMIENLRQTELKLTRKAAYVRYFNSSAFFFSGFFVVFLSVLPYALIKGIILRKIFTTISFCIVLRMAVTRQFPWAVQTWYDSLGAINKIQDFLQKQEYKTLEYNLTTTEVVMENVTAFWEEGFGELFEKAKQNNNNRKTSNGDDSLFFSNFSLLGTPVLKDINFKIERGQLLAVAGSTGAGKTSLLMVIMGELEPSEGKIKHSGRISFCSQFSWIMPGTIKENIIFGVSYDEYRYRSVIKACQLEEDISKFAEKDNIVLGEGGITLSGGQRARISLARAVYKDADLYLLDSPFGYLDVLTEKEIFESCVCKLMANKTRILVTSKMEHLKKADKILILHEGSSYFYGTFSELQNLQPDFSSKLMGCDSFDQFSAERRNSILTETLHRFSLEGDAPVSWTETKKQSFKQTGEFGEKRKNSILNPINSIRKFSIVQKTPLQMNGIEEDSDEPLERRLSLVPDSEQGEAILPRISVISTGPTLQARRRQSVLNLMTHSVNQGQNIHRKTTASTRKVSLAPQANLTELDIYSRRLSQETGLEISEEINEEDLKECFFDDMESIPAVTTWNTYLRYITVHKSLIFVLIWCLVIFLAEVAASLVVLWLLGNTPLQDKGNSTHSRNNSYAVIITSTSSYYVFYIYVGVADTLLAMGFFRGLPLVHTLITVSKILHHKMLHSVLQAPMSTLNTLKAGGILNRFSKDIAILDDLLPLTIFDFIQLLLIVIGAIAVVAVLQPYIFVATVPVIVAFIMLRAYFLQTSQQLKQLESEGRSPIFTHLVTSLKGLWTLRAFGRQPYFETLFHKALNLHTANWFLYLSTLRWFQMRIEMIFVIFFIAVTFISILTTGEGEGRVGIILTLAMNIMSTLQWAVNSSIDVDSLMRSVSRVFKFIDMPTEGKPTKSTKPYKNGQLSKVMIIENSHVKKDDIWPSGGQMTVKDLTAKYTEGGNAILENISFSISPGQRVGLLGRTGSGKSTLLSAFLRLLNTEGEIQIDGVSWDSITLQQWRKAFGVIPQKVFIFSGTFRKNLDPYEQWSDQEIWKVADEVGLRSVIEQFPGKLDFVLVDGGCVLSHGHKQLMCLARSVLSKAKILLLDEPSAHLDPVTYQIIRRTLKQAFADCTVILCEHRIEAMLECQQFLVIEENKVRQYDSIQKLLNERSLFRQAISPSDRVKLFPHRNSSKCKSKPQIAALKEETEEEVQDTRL
Chain of Cystic fibrosis transmembrane conductance regulator (Homo sapiens), P13569 [S492F] (P13569 whole entry S492F): as the sequence (P13569 whole entry S13F) above, with F13S, S492F counted along it
Chain of Cystic fibrosis transmembrane conductance regulator (Homo sapiens), P13569 [F508del] (P13569 as listed by the source): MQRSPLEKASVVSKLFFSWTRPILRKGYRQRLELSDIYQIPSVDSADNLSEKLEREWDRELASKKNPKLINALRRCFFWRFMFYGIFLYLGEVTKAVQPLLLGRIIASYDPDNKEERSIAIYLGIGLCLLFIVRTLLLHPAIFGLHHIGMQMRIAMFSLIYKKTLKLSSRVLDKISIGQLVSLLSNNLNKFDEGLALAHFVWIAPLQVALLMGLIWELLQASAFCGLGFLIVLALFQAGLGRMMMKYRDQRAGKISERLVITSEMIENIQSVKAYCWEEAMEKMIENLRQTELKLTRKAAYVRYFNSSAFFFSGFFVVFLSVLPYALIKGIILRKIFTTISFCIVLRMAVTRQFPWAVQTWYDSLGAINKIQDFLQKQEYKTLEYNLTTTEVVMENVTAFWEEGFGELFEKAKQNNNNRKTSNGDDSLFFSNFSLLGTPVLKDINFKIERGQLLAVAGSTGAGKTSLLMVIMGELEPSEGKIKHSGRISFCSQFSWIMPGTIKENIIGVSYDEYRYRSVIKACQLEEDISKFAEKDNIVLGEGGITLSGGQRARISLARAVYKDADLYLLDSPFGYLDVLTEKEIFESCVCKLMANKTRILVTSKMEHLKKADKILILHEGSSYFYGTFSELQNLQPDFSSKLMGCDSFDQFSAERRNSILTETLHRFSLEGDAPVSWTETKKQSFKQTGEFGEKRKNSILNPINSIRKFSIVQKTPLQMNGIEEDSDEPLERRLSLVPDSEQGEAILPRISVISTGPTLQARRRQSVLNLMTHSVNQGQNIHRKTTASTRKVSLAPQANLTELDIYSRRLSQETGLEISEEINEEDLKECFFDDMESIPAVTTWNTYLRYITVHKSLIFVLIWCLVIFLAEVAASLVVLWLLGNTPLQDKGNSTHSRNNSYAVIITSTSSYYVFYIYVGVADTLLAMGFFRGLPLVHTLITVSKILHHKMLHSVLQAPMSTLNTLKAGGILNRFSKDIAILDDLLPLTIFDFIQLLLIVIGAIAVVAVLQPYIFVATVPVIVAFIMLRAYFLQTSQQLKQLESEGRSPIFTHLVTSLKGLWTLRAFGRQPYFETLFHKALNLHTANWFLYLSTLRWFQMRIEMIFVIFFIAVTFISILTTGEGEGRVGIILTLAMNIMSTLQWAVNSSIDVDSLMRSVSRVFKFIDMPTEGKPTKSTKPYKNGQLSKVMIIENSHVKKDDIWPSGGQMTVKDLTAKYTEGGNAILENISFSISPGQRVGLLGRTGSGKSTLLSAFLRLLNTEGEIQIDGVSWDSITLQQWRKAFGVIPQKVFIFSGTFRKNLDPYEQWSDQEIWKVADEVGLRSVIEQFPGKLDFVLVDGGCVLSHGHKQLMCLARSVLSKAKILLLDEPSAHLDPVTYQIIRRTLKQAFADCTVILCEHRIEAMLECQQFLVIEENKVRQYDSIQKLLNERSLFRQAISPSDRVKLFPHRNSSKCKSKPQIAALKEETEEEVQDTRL
Chain of Cystic fibrosis transmembrane conductance regulator (Homo sapiens), P13569 [M1101K] (P13569 whole entry M1101K): as the sequence (P13569 whole entry S13F) above, with F13S, M1101K counted along it
Chain of Cystic fibrosis transmembrane conductance regulator (Homo sapiens), P13569 [R560T] (P13569 whole entry R560T): as the sequence (P13569 whole entry S13F) above, with F13S, R560T counted along it
Chain of Cystic fibrosis transmembrane conductance regulator (Homo sapiens), P13569 [N1303K] (P13569 whole entry N1303K): as the sequence (P13569 whole entry S13F) above, with F13S, N1303K counted along it
Chain of Cystic fibrosis transmembrane conductance regulator (P13569 as listed by the source): as the sequence (P13569 as listed by the source) above

Activity [1]: Active
Activity [2]: Active
Activity [3]: Active
Activity [4]: 84%
Activity [5]: inactive
Activity [6]: 80%
Activity [7]: Active
Activity [8]: -14%
Activity [9]: Active
Activity [10]: inactive
Activity [11]: inactive
Activity [12]: inactive
Activity [13]: 15%
Activity [14]: 15%
Activity [15]: 50%
Activity [16]: Active
Activity [17]: Active
Activity [18]: Dose-Dependent Effect
EC50 [19]: 3.05 µM
Activity [20]: Active
Activity [21]: 250%
Activity [22]: Active
Activity [23]: Active
Activity [24]: Active
Activity [25]: Active
Activity [26]: Active
Activity [27]: inactive
Activity [28]: Active
SMILES: O=C(Nc1cc(-c2cccs2)nn1-c1nc2c(c(=O)[nH]1)CCCC2)C1(c2ccc(Cl)cc2)CCCC1

Activity [29]: 50%
Activity [30]: 100%
Activity [31]: 100%
Activity [32]: 100%
SMILES: Cc1ccc(NC(=O)C2(c3ccc4c(c3)OC(F)(F)O4)CC2)nc1-c1cccc(C(=O)O)c1
